Literature values, collected in article PMC4369286 (Chemistry Central Journal, 2015).
Like-named read-outs stand apart in the source and are kept apart here. One block for each molecule: values may come before it.

Experiments:
[1] = value of the pure solvent
[2] = for E (excess molar refractivity descriptor): known values used for comparison
[3] = in several of the organic solvents studied
[4] = design: method as in earlier work; conditions: direct partition, monomer
[5] = known value given as comparison

Kamlet-Taft solvent hydrogen bond basicity, β [1]: 0.40
Compound: CC#N [acetonitrile]

Compound: CO [methanol]
Kamlet-Taft solvent hydrogen bond basicity, β [1]: 0.66

Compound: O=[N+]([O-])c1ccccc1 [nitrobenzene]
Kamlet-Taft solvent hydrogen bond basicity, β [1]: 0.30

E (excess molar refractivity descriptor) [2]: 1.102
Compound: CCOC(=O)/C=C/c1ccccc1 [ethyl cinnamate]

Compound: O=C(O)c1ccccc1 [Benzoic acid, benzoic acid]
S (dipolarity/polarity descriptor) [2, 5]: 0.90 | V (McGowan characteristic volume descriptor) [2, 5]: 0.9317 | E (excess molar refractivity descriptor) [2]: 0.73 | E (excess molar refractivity descriptor) ([2]; listed as benzoic acid): 0.730 | Kdimer (dimerization constant) (in benzene): 590 | Kdimer (dimerization constant) (in cyclohexane): 11300 | Kdimer (dimerization constant) (in tetrachloromethane): 5010

Compound: CCOC(=O)c1ccccc1 [ethyl benzoate]
E (excess molar refractivity descriptor) [2]: 0.689

Compound: CC(C)=O [propanone]
Kamlet-Taft solvent hydrogen bond basicity, β [1]: 0.43

Compound: ClC(Cl)Cl [trichloromethane]
Kamlet-Taft solvent hydrogen bond basicity, β [1]: 0.10

Compound: CCOCC [diethyl ether]
Kamlet-Taft solvent hydrogen bond basicity, β [1]: 0.47

Kamlet-Taft solvent hydrogen bond basicity, β [1]: 0.40
Compound: CCCOC(C)=O [propyl acetate]

solubility in organic solvents [3]: exceeding 1 molar
Compound: CC(=O)Oc1ccccc1C(=O)O [aspirin]

Log Ps (water-solvent partition coefficient) ([4]; solvent Cyclohexane): −0.25 | Log Ps (water-solvent partition coefficient) ([4]; solvent Diethyl ether, wet): 1.92 | Log Ps (water-solvent partition coefficient) ([4]; solvent Octan-1-ol, wet): 2.13 | Log Ps (water-solvent partition coefficient) ([4]; solvent Tetrachloromethane): 0.40 | Log Ps (water-solvent partition coefficient) ([4]; solvent Trichloromethane): 1.20
Compound: O=C(O)/C=C/c1ccccc1 [trans-cinnamic acid]

Compound: OCC(F)(F)F [trifluoroethanol]
Kamlet-Taft solvent hydrogen bond basicity, β [1]: 0.00

Kamlet-Taft solvent hydrogen bond basicity, β [1]: 0.00
Compound: C1CCCCC1 [cyclohexane]
